Source: ChEMBL document CHEMBL5724914, “Linking interpersonal differences in gut microbiota composition and drug biotransformation activity” (2024)

Assays:
[1] = The drug is tested on WLS-220 corresponding to human gut metagenome with ENA study accession number: PRJEB37062 and ENA sample accession number: ERS12561769 for biotransformation under anaerobic condition. The drug concentrations were measured over 9 timepoints collected between 0 and 24 hours of incubation by liquid-chromatography-coupled mass spectrometry (LC–MS); settings: 2 µM
[2] = human gut metagenome, 24 h, 2 µM
[3] = The drug is tested on Z-014 corresponding to rat gut metagenome with ENA study accession number: PRJEB37062 and ENA sample accession number: ERS12561814 for biotransformation under anaerobic condition. The drug concentrations were measured over 9 timepoints collected between 0 and 24 hours of incubation by liquid-chromatography-coupled mass spectrometry (LC–MS); settings: 2 µM
[4] = human gut metagenome, 24 h, 2 µM; remark: listed apart in the source
[5] = The drug is tested on Z-018 corresponding to pig gut metagenome with ENA study accession number: PRJEB37062 and ENA sample accession number: ERS12561817 for biotransformation under anaerobic condition. The drug concentrations were measured over 9 timepoints collected between 0 and 24 hours of incubation by liquid-chromatography-coupled mass spectrometry (LC–MS); settings: 2 µM
[6] = The drug is tested on WLS-086 corresponding to human gut metagenome with ENA study accession number: PRJEB37062 and ENA sample accession number: ERS12561752 for biotransformation under anaerobic condition. The drug concentrations were measured over 9 timepoints collected between 0 and 24 hours of incubation by liquid-chromatography-coupled mass spectrometry (LC–MS); settings: 2 µM
[7] = The drug is tested on Z-002 corresponding to rabbit gut metagenome with ENA study accession number: PRJEB37062 and ENA sample accession number: ERS12561802 for biotransformation under anaerobic condition. The drug concentrations were measured over 9 timepoints collected between 0 and 24 hours of incubation by liquid-chromatography-coupled mass spectrometry (LC–MS); settings: 2 µM
[8] = The drug is tested on Z-008 corresponding to metagenome with ENA study accession number: PRJEB37062 and ENA sample accession number: ERS12561808 for biotransformation under anaerobic condition. The drug concentrations were measured over 9 timepoints collected between 0 and 24 hours of incubation by liquid-chromatography-coupled mass spectrometry (LC–MS); settings: 2 µM
[9] = The drug is tested on Z-028 corresponding to mouse gut metagenome with ENA study accession number: PRJEB37062 and ENA sample accession number: ERS12561827 for biotransformation under anaerobic condition. The drug concentrations were measured over 9 timepoints collected between 0 and 24 hours of incubation by liquid-chromatography-coupled mass spectrometry (LC–MS); settings: 2 µM
[10] = human gut metagenome, 24 h, 2 µM; remark: listed apart in the source
[11] = The drug is tested on Z-019 corresponding to rat gut metagenome with ENA study accession number: PRJEB37062 and ENA sample accession number: ERS12561818 for biotransformation under anaerobic condition. The drug concentrations were measured over 9 timepoints collected between 0 and 24 hours of incubation by liquid-chromatography-coupled mass spectrometry (LC–MS); settings: 2 µM
[12] = The drug is tested on WLS-006 corresponding to human gut metagenome with ENA study accession number: PRJEB37062 and ENA sample accession number: ERS12561741 for biotransformation under anaerobic condition. The drug concentrations were measured over 9 timepoints collected between 0 and 24 hours of incubation by liquid-chromatography-coupled mass spectrometry (LC–MS); settings: 2 µM
[13] = human gut metagenome, 24 h, 2 µM; remark: listed apart in the source
[14] = The drug is tested on Z-017 corresponding to mouse gut metagenome with ENA study accession number: PRJEB37062 and ENA sample accession number: ERS12561816 for biotransformation under anaerobic condition. The drug concentrations were measured over 9 timepoints collected between 0 and 24 hours of incubation by liquid-chromatography-coupled mass spectrometry (LC–MS); settings: 2 µM
[15] = human gut metagenome, 24 h, 2 µM; remark: listed apart in the source
[16] = human gut metagenome, 24 h, 2 µM; remark: listed apart in the source
[17] = human gut metagenome, 24 h, 2 µM; remark: listed apart in the source
[18] = human gut metagenome, 24 h, 2 µM; remark: listed apart in the source
[19] = The drug is tested on Z-003 corresponding to pig gut metagenome with ENA study accession number: PRJEB37062 and ENA sample accession number: ERS12561803 for biotransformation under anaerobic condition. The drug concentrations were measured over 9 timepoints collected between 0 and 24 hours of incubation by liquid-chromatography-coupled mass spectrometry (LC–MS); settings: 2 µM
[20] = The drug is tested on Z-026 corresponding to metagenome with ENA study accession number: PRJEB37062 and ENA sample accession number: ERS12561825 for biotransformation under anaerobic condition. The drug concentrations were measured over 9 timepoints collected between 0 and 24 hours of incubation by liquid-chromatography-coupled mass spectrometry (LC–MS); settings: 2 µM
Also: call rule not given here.

Row | Structure (SMILES) | Bacterial Biotransformation [1] | Bacterial Biotransformation [2] | Bacterial Biotransformation [3] | Bacterial Biotransformation [4] | Bacterial Biotransformation [5] | Bacterial Biotransformation [6] | Bacterial Biotransformation [7] | Bacterial Biotransformation [8] | Bacterial Biotransformation [9] | Bacterial Biotransformation [10] | Bacterial Biotransformation [11] | Bacterial Biotransformation [12] | Bacterial Biotransformation [13] | Bacterial Biotransformation [14] | Bacterial Biotransformation [15] | Bacterial Biotransformation [16] | Bacterial Biotransformation [17] | Bacterial Biotransformation [18] | Bacterial Biotransformation [19] | Bacterial Biotransformation [20]
1 | CN(C)CC(c1ccc(O)cc1)C1(O)CCCCC1.O=C(O)CCC(=O)O (stereo not given) [DESVENLAFAXINE SUCCINATE] | Compound NOT metabolized | Compound NOT metabolized | Compound NOT metabolized | Compound NOT metabolized | Compound NOT metabolized | Compound NOT metabolized | Compound NOT metabolized | Compound NOT metabolized | Compound NOT metabolized | Compound NOT metabolized | Compound NOT metabolized | Compound NOT metabolized | Compound NOT metabolized | Compound NOT metabolized | Compound NOT metabolized | Compound NOT metabolized | Compound NOT metabolized | Compound NOT metabolized | Compound NOT metabolized | Compound NOT metabolized
2 | CN1CCN(C(=O)O[C@H]2c3nccnc3C(=O)N2c2ccc(Cl)cn2)CC1 [ESZOPICLONE] | Compound NOT metabolized | Compound NOT metabolized | Compound NOT metabolized | Compound NOT metabolized | Compound NOT metabolized | Compound NOT metabolized | Compound NOT metabolized | Compound NOT metabolized | Compound NOT metabolized | Compound NOT metabolized | Compound NOT metabolized | Compound NOT metabolized | Compound NOT metabolized | Compound NOT metabolized | Compound NOT metabolized | Compound NOT metabolized | Compound NOT metabolized | Compound NOT metabolized | Compound NOT metabolized | Compound NOT metabolized
3 | O=C1[C@H](CC[C@H](O)c2ccc(F)cc2)[C@@H](c2ccc(O)cc2)N1c1ccc(F)cc1 [EZETIMIBE] | Compound metabolized | Compound NOT metabolized | Compound NOT metabolized | Compound NOT metabolized | Compound NOT metabolized | Compound metabolized | Compound NOT metabolized | Compound NOT metabolized | Compound NOT metabolized | Compound NOT metabolized | Compound NOT metabolized | Compound metabolized | Compound NOT metabolized | Compound NOT metabolized | Compound NOT metabolized | Compound NOT metabolized | Compound NOT metabolized | Compound NOT metabolized | Compound NOT metabolized | Compound NOT metabolized
